Format in all cases: biochemical
In one assay the target is T1, human Yes1 enzyme (Homo sapiens, UniProt P07947).
T1 construct: made in house
The assay can be described thus: Yes1 enzyme inhibitory activity (time-resolved fluorometry, biotinylated peptide phosphorylation). Particulars: read-out: YES_IC50. The essentials: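 Inhibition was expressed against a compound-free control to give IC50, using TR-FRET read-out (Eu-cryptate anti-pTyr antibody, streptavidin-XL665).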

Another assay concerns the target T2, human Lck enzyme (Homo sapiens, UniProt P06239).
T2 construct: purchased Carna Biosciences, Inc. 08-170
Kind of assay: Lck enzyme inhibitory activity (time-resolved fluorometry, biotinylated peptide phosphorylation). To be noted: read-out: LCK_IC50. In a few lines: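 Readout pairs a europium cryptate-labelled anti-phosphotyrosine antibody with XL665-streptavidin, measured by time-resolved fluorescence. IC50 derived from percent inhibition against untreated controls.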

Another assay deals with T3, human Src enzyme (Homo sapiens, UniProt P12931).
T3 construct: purchased Carna Biosciences, Inc. 08-173
T3 sequence (P12931 whole entry): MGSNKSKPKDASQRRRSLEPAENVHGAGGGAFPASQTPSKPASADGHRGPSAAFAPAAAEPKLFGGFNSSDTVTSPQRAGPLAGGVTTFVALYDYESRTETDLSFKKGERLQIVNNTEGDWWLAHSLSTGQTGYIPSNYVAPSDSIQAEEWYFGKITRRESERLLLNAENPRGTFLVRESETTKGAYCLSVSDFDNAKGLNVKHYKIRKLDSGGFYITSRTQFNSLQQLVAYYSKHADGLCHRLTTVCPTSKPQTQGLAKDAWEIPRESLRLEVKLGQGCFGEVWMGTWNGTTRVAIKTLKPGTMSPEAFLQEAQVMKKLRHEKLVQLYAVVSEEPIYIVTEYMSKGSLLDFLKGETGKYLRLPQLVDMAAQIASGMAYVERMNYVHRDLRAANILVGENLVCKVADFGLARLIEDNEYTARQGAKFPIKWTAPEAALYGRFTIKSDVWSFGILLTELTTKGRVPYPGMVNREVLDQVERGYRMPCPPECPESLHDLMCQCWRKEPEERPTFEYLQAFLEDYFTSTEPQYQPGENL
Kind of assay: Src enzyme inhibitory activity (time-resolved fluorometry, biotinylated peptide phosphorylation). To be noted: read-out: SRC_IC50. In a few lines:
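Compounds were tested for blocking tyrosine phosphorylation of a biotinylated peptide substrate by recombinant human Src. Phosphorylated product was quantified by time-resolved fluorometry using europium cryptate and XL665 conjugates, and IC50 was calculated against the compound-free control.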

[1] abbreviates: biotinylated peptide phosphorylation.

Each structure is given as a SMILES string. Like-named read-outs stand apart in the source and are kept apart here.

T1 sequence (P07947 whole entry): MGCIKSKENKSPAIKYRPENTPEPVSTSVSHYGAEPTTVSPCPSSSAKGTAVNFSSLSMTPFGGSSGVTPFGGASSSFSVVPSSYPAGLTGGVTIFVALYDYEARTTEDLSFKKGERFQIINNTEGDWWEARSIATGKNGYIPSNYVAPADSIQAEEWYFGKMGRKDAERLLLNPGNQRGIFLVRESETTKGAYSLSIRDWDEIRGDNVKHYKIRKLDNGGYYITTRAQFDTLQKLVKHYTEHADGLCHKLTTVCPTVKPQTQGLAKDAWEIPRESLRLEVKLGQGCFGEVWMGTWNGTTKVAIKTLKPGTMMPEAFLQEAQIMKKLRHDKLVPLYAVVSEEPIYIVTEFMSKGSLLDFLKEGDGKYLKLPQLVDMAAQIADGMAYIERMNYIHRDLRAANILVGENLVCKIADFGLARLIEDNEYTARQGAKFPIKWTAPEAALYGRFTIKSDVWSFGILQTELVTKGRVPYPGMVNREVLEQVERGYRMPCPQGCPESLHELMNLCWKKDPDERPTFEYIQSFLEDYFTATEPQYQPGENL
T2 sequence (P06239 whole entry): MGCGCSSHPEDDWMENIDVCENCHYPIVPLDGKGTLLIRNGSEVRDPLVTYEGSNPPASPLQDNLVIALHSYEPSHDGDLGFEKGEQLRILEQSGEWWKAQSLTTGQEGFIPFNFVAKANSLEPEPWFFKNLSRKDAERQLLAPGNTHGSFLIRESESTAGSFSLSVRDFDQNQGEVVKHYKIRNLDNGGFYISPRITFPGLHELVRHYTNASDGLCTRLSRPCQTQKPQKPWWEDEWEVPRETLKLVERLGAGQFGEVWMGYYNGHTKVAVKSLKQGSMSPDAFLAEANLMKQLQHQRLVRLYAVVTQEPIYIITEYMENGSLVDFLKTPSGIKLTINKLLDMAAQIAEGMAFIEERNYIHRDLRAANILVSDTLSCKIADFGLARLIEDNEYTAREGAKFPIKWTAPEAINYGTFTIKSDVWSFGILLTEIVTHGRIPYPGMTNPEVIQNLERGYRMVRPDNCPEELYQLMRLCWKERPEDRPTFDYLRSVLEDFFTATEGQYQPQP

`Cc1cc(Oc2ccccc2F)ccc1-n1ncc(C(=O)c2cc3cc(OC(F)F)c(NC4COC4)cc3[nH]2)c1N` [Example 4-23-009, [5-amino-1-[4-(2-fluorophenoxy)-2-methylphenyl]pyrazol-4-yl]-[5-(difluoromethoxy)-6-(oxetan-3-ylamino)-1H-indol-2-yl]methanone]: the figures for the IC50 on human Yes1 enzyme (setting [1]), at human Lck enzyme (setting [1]) and on human Src enzyme (setting [1]) were 3.2 nM, 8.9 nM and 22 nM, respectively.
Turning to `Cc1cc(Oc2c(F)cccc2F)ncc1-n1ncc(C(=O)c2cc3cc(OC4CCN(C(C)C)CC4)c(N4CCC(O)CC4)cc3[nH]2)c1N` [Example 5-1-202, [5-amino-1-[6-(2,6-difluorophenoxy)-4-methylpyridin-3-yl]pyrazol-4-yl]-[6-(4-hydroxypiperidin-1-yl)-5-(1-propan-2-ylpiperidin-4-yl)oxy-1H-indol-2-yl]methanone], the IC50 at human Yes1 enzyme is 0.17 nM; at human Lck enzyme, 2.8 nM; at human Src enzyme, 3.1 nM.
As for `Cc1cnc(F)c(S(=O)(=O)Nc2cc3[nH]c(C(=O)c4cnn(-c5cnc(Oc6c(F)cccc6F)cc5C)c4N)cc3cc2C)c1` [Example 5-1-521, N-[2-[5-amino-1-[6-(2,6-difluorophenoxy)-4-methylpyridin-3-yl]pyrazole-4-carbonyl]-5-methyl-1H-indol-6-yl]-2-fluoro-5-methylpyridine-3-sulfonamide], the figures for the IC50 on human Yes1 enzyme (setting [1]), at human Lck enzyme (setting [1]) and at human Src enzyme (setting [1]) were 5.8 nM, 180 nM and 470 nM, respectively.
For `COc1ccnc(S(=O)(=O)Nc2cc3[nH]c(C(=O)c4cnn(-c5cnc(Oc6c(F)cccc6F)cc5C)c4N)cc3cc2OCC(F)F)c1` [Example 5-1-569, N-[2-[5-amino-1-[6-(2,6-difluorophenoxy)-4-methylpyridin-3-yl]pyrazole-4-carbonyl]-5-(2,2-difluoroethoxy)-1H-indol-6-yl]-4-methoxypyridine-2-sulfonamide], in that order: 4.1 nM, 22 nM and 230 nM.
In the case of `Cc1cc2cc(C(=O)c3cnn(-c4ccc(Oc5ccccc5F)cc4C)c3N)[nH]c2cc1NS(=O)(=O)c1cccc(F)n1` [Example 5-1-515, N-[2-[5-amino-1-[4-(2-fluorophenoxy)-2-methylphenyl]pyrazole-4-carbonyl]-5-methyl-1H-indol-6-yl]-6-fluoropyridine-2-sulfonamide], the IC50 at human Yes1 enzyme (setting [1]) came out at 2.4 nM; at human Lck enzyme (setting [1]), 59 nM; on human Src enzyme (setting [1]), 280 nM.
For `Cc1cc(Oc2ccccc2F)ncc1-n1ncc(C(=O)c2cc3cc(OC(F)F)c(NC4CCN(S(C)(=O)=O)CC4)cc3[nH]2)c1N` [Example 4-23-026, [5-amino-1-[6-(2-fluorophenoxy)-4-methylpyridin-3-yl]pyrazol-4-yl]-[5-(difluoromethoxy)-6-[(1-methylsulfonylpiperidin-4-yl)amino]-1H-indol-2-yl]methanone], in that order: 4.5 nM, 19 nM and 50 nM.
In the same order, the values of `Cc1cc2cc(C(=O)c3cnn(-c4cnc(Oc5ccccc5F)cc4C)c3N)[nH]c2cc1NS(=O)(=O)c1cc(Cl)cc(C#N)c1` [Example 5-1-498, N-[2-[5-amino-1-[6-(2-fluorophenoxy)-4-methylpyridin-3-yl]pyrazole-4-carbonyl]-5-methyl-1H-indol-6-yl]-3-chloro-5-cyanobenzenesulfonamide] are 8.7 nM, 420 nM and 1600 nM.
In the same order, the values of `Cc1ccccc1Oc1cc(C)c(-n2ncc(C(=O)c3cc4cc(F)c(NS(=O)(=O)CCCF)cc4[nH]3)c2N)cn1` [Example 4-2-025, N-[2-[5-amino-1-[4-methyl-6-(2-methylphenoxy)pyridin-3-yl]pyrazole-4-carbonyl]-5-fluoro-1H-indol-6-yl]-3-fluoropropane-1-sulfonamide] are 2.4 nM, 35 nM and 52 nM.
As to `Cc1cc(-n2ncc(C(=O)c3cc4cc(OC5CCN(C(C)C)CC5)c(N5C(=O)N[C@@H](CO)C5=O)cc4[nH]3)c2N)ccc1Oc1ccccc1F` [Example 5-1-293, (5S)-3-[2-[5-amino-1-[4-(2-fluorophenoxy)-3-methylphenyl]pyrazole-4-carbonyl]-5-(1-propan-2-ylpiperidin-4-yl)oxy-1H-indol-6-yl]-5-(hydroxymethyl)imidazolidine-2,4-dione], the results for the IC50 at human Yes1 enzyme, on human Lck enzyme and at human Src enzyme were 0.73 nM, 18 nM and 440 nM, respectively.
Turning to `Cc1cc(Oc2c(F)cccc2F)ncc1-n1ncc(C(=O)c2cc3cc(F)c(NS(=O)(=O)c4cccc(C#N)n4)cc3[nH]2)c1N` [Example 5-1-538, N-[2-[5-amino-1-[6-(2,6-difluorophenoxy)-4-methylpyridin-3-yl]pyrazole-4-carbonyl]-5-fluoro-1H-indol-6-yl]-6-cyanopyridine-2-sulfonamide], the IC50 was 9.6 nM at human Yes1 enzyme (setting [1]), 140 nM at human Lck enzyme (setting [1]) and 680 nM at human Src enzyme (setting [1]).
Turning to `Cc1cc(Oc2ccccc2F)ccc1-n1ncc(C(=O)c2cc3cc(OC(F)F)c(N4CCC(N5CCOCC5)CC4)cc3[nH]2)c1N` [Example 4-25-032, [5-amino-1-[4-(2-fluorophenoxy)-2-methylphenyl]pyrazol-4-yl]-[5-(difluoromethoxy)-6-(4-morpholin-4-ylpiperidin-1-yl)-1H-indol-2-yl]methanone], the IC50 on human Yes1 enzyme (setting [1]) is 0.83 nM; at human Lck enzyme (setting [1]), 11 nM; on human Src enzyme (setting [1]), 48 nM.
Turning to `Cc1cc(Oc2ccccc2F)ccc1-n1ncc(C(=O)c2cc3cc(F)c(N4C(=O)N[C@@H](C(C)C)C4=O)cc3[nH]2)c1N` [Example 5-1-447, (5S)-3-[2-[5-amino-1-[4-(2-fluorophenoxy)-2-methylphenyl]pyrazole-4-carbonyl]-5-fluoro-1H-indol-6-yl]-5-propan-2-ylimidazolidine-2,4-dione], the IC50 at human Yes1 enzyme (setting [1]) is 2 nM; at human Lck enzyme (setting [1]), 12 nM; on human Src enzyme (setting [1]) it was 84 nM.
On to `Cc1cc(-n2ncc(C(=O)c3cc4cc(OCC(F)F)c(N5CCC(N6CCOCC6)CC5)cc4[nH]3)c2N)ccc1Oc1ccccc1F` [Example 5-1-172, [5-amino-1-[4-(2-fluorophenoxy)-3-methylphenyl]pyrazol-4-yl]-[5-(2,2-difluoroethoxy)-6-(4-morpholin-4-ylpiperidin-1-yl)-1H-indol-2-yl]methanone], for which the IC50 at human Yes1 enzyme stood at 0.9 nM; at human Lck enzyme, 18 nM; at human Src enzyme, 170 nM.
Turning to `Cc1cc(Oc2ccccc2F)ccc1-n1ncc(C(=O)c2cc3cc(F)c(NS(=O)(=O)CCCF)cc3[nH]2)c1N` [Example 4-2-015, N-[2-[5-amino-1-[4-(2-fluorophenoxy)-2-methylphenyl]pyrazole-4-carbonyl]-5-fluoro-1H-indol-6-yl]-3-fluoropropane-1-sulfonamide], the IC50 on human Yes1 enzyme (setting [1]) is 0.67 nM; on human Lck enzyme (setting [1]), 10 nM; on human Src enzyme (setting [1]) it was 19 nM.
For the compound `Cc1cc2cc(C(=O)c3cnn(-c4ccc(Oc5ccccc5)cc4C)c3N)[nH]c2cc1NS(C)(=O)=O` [Example 5-1-108, N-[2-[5-amino-1-(2-methyl-4-phenoxyphenyl)pyrazole-4-carbonyl]-5-methyl-1H-indol-6-yl] methanesulfonamide], the IC50 came out at 0.57 nM on human Yes1 enzyme, 1.7 nM on human Lck enzyme and 21 nM on human Src enzyme.
Turning to `Cc1cc(Oc2c(F)cccc2F)ncc1-n1ncc(C(=O)c2cc3cc(OCC(F)F)c(C4CCN(C(=O)CN)CC4)cc3[nH]2)c1N` [Example 4-18-001, 2-amino-1-{4-{2-{5-amino-1-[6-(2,6-difluorophenoxy)-4-methylpyridin-3-yl]pyrazole-4-carbonyl}-5-(2,2-difluoroethoxy)-1H-indol-6-yl}piperidin-1-yl}ethanone], the IC50 is 3.2 nM at human Yes1 enzyme (setting [1]), 8.2 nM on human Lck enzyme (setting [1]) and 24 nM on human Src enzyme (setting [1]).
Regarding `Cc1cc2cc(C(=O)c3cnn(-c4cnc(Oc5c(F)cccc5F)cc4C)c3N)[nH]c2cc1N1C(=O)NC2(CCN(Cc3ccccc3)C2)C1=O` (stereo not drawn) [Example 5-1-363, 3-[2-[5-amino-1-[6-(2,6-difluorophenoxy)-4-methylpyridin-3-yl]pyrazole-4-carbonyl]-5-methyl-1H-indol-6-yl]-7-benzyl-1,3,7-triazaspiro[4.4]nonane-2,4-dione], the IC50 at human Yes1 enzyme was determined as 11 nM; at human Lck enzyme, 31 nM; at human Src enzyme it was 260 nM.
Take `Cc1cc(Oc2c(F)cccc2F)ncc1-n1ncc(C(=O)c2cc3cc(OCC(F)F)c(NS(=O)(=O)c4ccc(F)cc4)cc3[nH]2)c1N` [Example 5-1-297, N-[2-[5-amino-1-[6-(2,6-difluorophenoxy)-4-methylpyridin-3-yl]pyrazole-4-carbonyl]-5-(2,2-difluoroethoxy)-1H-indol-6-yl]-4-fluorobenzenesulfonamide]: the figures for the IC50 at human Yes1 enzyme, on human Lck enzyme and at human Src enzyme were 8.5 nM, 46 nM and 580 nM, respectively.
In the same order, the values of `CC(=O)N1CCC(c2cc3[nH]c(C(=O)c4cnn(-c5ccc(Oc6ccccc6F)cc5C)c4N)cc3cc2C)CC1` [Example 5-1-132, 1-[4-[2-[5-amino-1-[4-(2-fluorophenoxy)-2-methylphenyl]pyrazole-4-carbonyl]-5-methyl-1H-indol-6-yl]piperidin-1-yl]ethanone] are 0.71 nM, 3.3 nM and 6.6 nM.
As to `Cc1cc(Oc2cccc(F)c2F)ncc1-n1ncc(C(=O)c2cc3cc(NS(C)(=O)=O)c(F)cc3[nH]2)c1N` [Example 5-1-049, N-[2-[5-amino-1-[6-(2,3-difluorophenoxy)-4-methylpyridin-3-yl]pyrazole-4-carbonyl]-6-fluoro-1H-indol-5-yl]methanesulfonamide], the IC50 at human Yes1 enzyme was 1.5 nM; at human Lck enzyme it was 3.9 nM; on human Src enzyme it was 70 nM.

The values above are taken from patent US10479780B2, “Aminopyrazole derivatives” (Chugai Seiyaku Kabushiki Kaisha, priority 2015, dated 2019).
